# Results reported in ChEMBL document CHEMBL4811295, “The ester derivatives obtained by C-ring modification of podophyllotoxin induce apoptosis and inhibited proliferation in PC-3M cells via down-regulation of PI3K/Akt signaling pathway” (Bioorg Med Chem Lett, 2021).
# Active and inactive are the calls of the source. The calls are words filed in the database; no cut-off is given here.
# Key:
# PC-3M [1] = assay: Cytotoxicity in human PC-3M cells assessed as inhibition of cell proliferation measured by CCK-8 assay; format: functional, cell-based
# PC-3M [2] = assay: Induction of apoptosis in human PC-3M cells assessed as late apoptotic cells at 1 nM measured after 48 hrs by Annexin V/PI staining based flow cytometry method (reference value: 2.88%); format: functional
# PC-3M [3] = assay: Induction of apoptosis in human PC-3M cells assessed as late apoptotic cells at 5 nM measured after 48 hrs by Annexin V/PI staining based flow cytometry method (reference value: 2.88%); format: functional
# [4] = biological target: RAC-alpha serine/threonine-protein kinase (Homo sapiens) (UniProt P31749); assay: Inhibition of Akt in human PC-3M cells assessed as reduction of […] expression at 1 to 10 nM measured by western blot assay; format: cell-based; settings: dose 1-10 nM
# PC-3M [5] = assay: Induction of apoptosis in human PC-3M cells assessed as viable cells at 1 nM measured after 48 hrs by Annexin V/PI staining based flow cytometry method (reference value: 95.6%); format: functional; settings: read-out: Activity
# HepG2 = assay: Cytotoxicity in human HepG2 cells assessed as inhibition of cell proliferation measured by CCK-8 assay; format: functional, cell-based
# PC-3M [6] = assay: Induction of apoptosis in human PC-3M cells assessed by formation of chromatin fragments at 10 nM measured after 48 hrs by DAPI staining based microscopic method; format: functional, cell-based
# PC-3M [7] = assay: Induction of apoptosis in human PC-3M cells assessed as early apoptotic cells at 10 nM measured after 48 hrs by Annexin V/PI staining based flow cytometry method (reference value: 1.25%); format: functional
# PC-3M [8] = assay: Antiproliferative activity against human PC-3M cells assessed as inhibition of cell proliferation measured after 9 days by Crystal violet staining based colony formation assay; format: functional; settings: dose 5-10 nM, time 9.0 day
# PC-3M [9] = assay: Induction of apoptosis in human PC-3M cells assessed by formation of apoptotic bodies at 10 nM measured after 48 hrs by DAPI staining based microscopic method; format: functional, cell-based
# PC-3M [10] = assay: Induction of apoptosis in human PC-3M cells assessed as early apoptotic cells at 5 nM measured after 48 hrs by Annexin V/PI staining based flow cytometry method (reference value: 1.25%); format: functional
# PC-3M [11] = assay: Induction of apoptosis in human PC-3M cells assessed as early apoptotic cells at 1 nM measured after 48 hrs by Annexin V/PI staining based flow cytometry method (reference value: 1.25%); format: functional
# PC-3M [12] = assay: Induction of apoptosis in human PC-3M cells assessed as necrotic cells at 1 nM measured after 48 hrs by Annexin V/PI staining based flow cytometry method (reference value: 0.25%); format: functional
# PC-3M [13] = assay: Induction of apoptosis in human PC-3M cells assessed as increase of Bax expression at 1 to 10 nM measured by western blot assay; format: functional, cell-based; settings: dose 1-10 nM
# PC-3M [14] = assay: Induction of apoptosis in human PC-3M cells assessed as viable cells at 10 nM measured after 48 hrs by Annexin V/PI staining based flow cytometry method (reference value: 95.6%); format: functional; settings: read-out: Activity
# PC-3M [15] = assay: Anti-migration activity in human PC-3M cells measured after 24 hrs by microscopy based wound scratch method; format: functional, cell-based; settings: dose 1-10 nM
# PC-3M [16] = assay: Inhibition of PI3K in human PC-3M cells assessed as reduction of phosphorylated PI3K expression at 1 to 10 nM measured by western blot assay; format: cell-based; settings: dose 1-10 nM
# PC-3M [17] = assay: Induction of apoptosis in human PC-3M cells assessed as increase of cleaved caspase-3 expression at 1 to 10 nM measured by western blot assay; format: functional, cell-based; settings: dose 1-10 nM
# MCF7 = assay: Cytotoxicity in human MCF7 cells assessed as inhibition of cell proliferation measured by CCK-8 assay; format: functional, cell-based
# A549 = assay: Cytotoxicity in human A549 cells assessed as inhibition of cell proliferation measured by CCK-8 assay; format: functional, cell-based
# PC-3M [18] = assay: Induction of apoptosis in human PC-3M cells assessed as necrotic cells at 5 nM measured after 48 hrs by Annexin V/PI staining based flow cytometry method (reference value: 0.25%); format: functional
# PC-3M [19] = assay: Induction of apoptosis in human PC-3M cells assessed by apoptotic changes in cells at 1 uM measured after 48 hrs by DAPI staining based microscopic method relative to PPT; format: functional, cell-based
# PC-3M [20] = assay: Induction of apoptosis in human PC-3M cells assessed as late apoptotic cells at 10 nM measured after 48 hrs by Annexin V/PI staining based flow cytometry method (reference value: 2.88%); format: functional
# PC-3M [21] = assay: Induction of apoptosis in human PC-3M cells assessed as necrotic cells at 10 nM measured after 48 hrs by Annexin V/PI staining based flow cytometry method (reference value: 0.25%); format: functional
# PC-3M [22] = assay: Induction of apoptosis in human PC-3M cells assessed as decrease of Bcl-2 expression at 1 to 10 nM measured by western blot assay; format: functional, cell-based; settings: dose 1-10 nM
# PC-3M [23] = assay: Induction of apoptosis in human PC-3M cells assessed by broken nucleus at 10 nM measured after 48 hrs by DAPI staining based microscopic method; format: functional, cell-based
# HMEC = assay: Cytotoxicity in human HMEC cells assessed as inhibition of cell proliferation measured by CCK-8 assay; format: functional, cell-based
# PC-3M [24] = assay: Induction of apoptosis in human PC-3M cells assessed as viable cells at 5 nM measured after 48 hrs by Annexin V/PI staining based flow cytometry method (reference value: 95.6%); format: functional; settings: read-out: Activity
# PC-3M [25] = assay: Induction of apoptosis in human PC-3M cells assessed by irregular nucleus at 10 nM measured after 48 hrs by DAPI staining based microscopic method; format: functional, cell-based
# PC-3M [26] = assay: Antiproliferative activity against human PC-3M cells assessed as inhibition of cell proliferation at 1 nM measured after 9 days by Crystal violet staining based colony formation assay; format: functional; settings: time 9.0 day
# RAC-alpha serine/threonine-protein kinase (Homo sapiens), sequence (P31749 whole entry): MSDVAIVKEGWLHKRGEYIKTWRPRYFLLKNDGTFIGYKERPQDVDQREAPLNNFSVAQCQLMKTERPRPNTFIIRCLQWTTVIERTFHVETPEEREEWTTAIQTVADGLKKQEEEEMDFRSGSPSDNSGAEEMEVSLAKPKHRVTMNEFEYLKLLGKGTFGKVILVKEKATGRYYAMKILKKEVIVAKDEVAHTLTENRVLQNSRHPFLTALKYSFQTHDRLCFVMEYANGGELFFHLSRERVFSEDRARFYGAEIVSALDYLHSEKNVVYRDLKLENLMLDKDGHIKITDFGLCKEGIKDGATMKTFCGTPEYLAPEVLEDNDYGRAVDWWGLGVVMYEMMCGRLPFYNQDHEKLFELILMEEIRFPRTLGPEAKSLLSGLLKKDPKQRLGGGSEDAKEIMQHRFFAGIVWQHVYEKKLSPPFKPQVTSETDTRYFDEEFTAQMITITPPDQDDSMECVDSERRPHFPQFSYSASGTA
compound,measurement,setting,value
COc1cc([C@@H]2c3cc4c(cc3[C@H](OC(=O)CNC(=O)OC(C)(C)C)[C@H]3COC(=O)[C@H]23)OCO4)cc(OC)c1OC,IC50,PC-3M [1],1.28 nM
same,Activity,PC-3M [2],5.53%
same,Activity,PC-3M [3],12.7%
same,inhibition,[4],Active
same,viability at 0.001 µM,PC-3M [5],92.5%
same,IC50,HepG2,50.7 µM
same,Activity,PC-3M [6],Dose-Dependent Effect
same,Activity,PC-3M [7],5.41%
same,Activity,PC-3M [8],Dose-Dependent Effect
same,Activity,PC-3M [9],Dose-Dependent Effect
same,Activity,PC-3M [10],3.74%
same,Activity,PC-3M [11],1.86%
same,Activity,PC-3M [12],0.14%
same,Activity,PC-3M [13],Dose-Dependent Effect
same,viability at 0.01 µM,PC-3M [14],64.4%
same,Activity,PC-3M [15],Dose-Dependent Effect
same,inhibition,PC-3M [16],Active
same,Activity,PC-3M [17],Dose-Dependent Effect
same,IC50,MCF7,144 µM
same,IC50,A549,9.54 nM
same,Activity,PC-3M [18],0.11%
same,Activity,PC-3M [19],Active
same,Activity,PC-3M [20],29.9%
same,Activity,PC-3M [21],0.21%
same,Activity,PC-3M [22],Dose-Dependent Effect
same,Activity,PC-3M [23],Dose-Dependent Effect
same,IC50,HMEC,768 nM
same,viability at 0.005 µM,PC-3M [24],83.4%
same,Activity,PC-3M [25],Dose-Dependent Effect
COc1cc([C@@H]2c3cc4c(cc3[C@H](OC(=O)[C@H](C)NC(=O)OC(C)(C)C)[C@H]3COC(=O)[C@H]23)OCO4)cc(OC)c1OC,IC50,PC-3M [1],1170 nM
same,IC50,HepG2,84.9 µM
same,IC50,MCF7,40.7 µM
same,IC50,A549,28.4 nM
same,IC50,HMEC,8420 nM
COc1cc([C@@H]2c3cc4c(cc3[C@H](OC(=O)c3ccncc3)[C@H]3COC(=O)[C@H]23)OCO4)cc(OC)c1OC [4-O-PODOPHYLLOTOXINYL-ISONICOTINATE],IC50,PC-3M [1],92.6 nM
same,IC50,HepG2,188 µM
same,IC50,MCF7,> 200 µM
same,IC50,A549,16.3 nM
same,IC50,HMEC,3720 nM
COc1cc([C@@H]2c3cc4c(cc3[C@H](OC(=O)c3sccc3Cl)[C@H]3COC(=O)[C@H]23)OCO4)cc(OC)c1OC,IC50,PC-3M [1],965 nM
same,IC50,HepG2,149 µM
same,IC50,MCF7,> 200 µM
same,IC50,A549,155 nM
same,IC50,HMEC,116 nM
COc1cc([C@@H]2c3cc4c(cc3[C@H](OC(=O)[C@H](CCSC)NC(=O)OC(C)(C)C)[C@H]3COC(=O)[C@H]23)OCO4)cc(OC)c1OC,IC50,PC-3M [1],5.11 nM
same,IC50,HepG2,51 µM
same,IC50,MCF7,93.1 µM
same,IC50,A549,1030 nM
same,IC50,HMEC,2600 nM
CC[C@H](C)[C@H](NC(=O)OC(C)(C)C)C(=O)O[C@H]1c2cc3c(cc2[C@@H](c2cc(OC)c(OC)c(OC)c2)[C@H]2C(=O)OC[C@@H]21)OCO3,IC50,PC-3M [1],1070 nM
same,IC50,HepG2,0.866 µM
same,IC50,MCF7,69.9 µM
same,IC50,A549,7960 nM
same,IC50,HMEC,4480 nM
CCCCCCCCCCCCCC(=O)O[C@H]1c2cc3c(cc2[C@@H](c2cc(OC)c(OC)c(OC)c2)[C@H]2C(=O)OC[C@@H]21)OCO3,IC50,PC-3M [1],1720 nM
same,IC50,HepG2,88.7 µM
same,IC50,MCF7,> 200 µM
same,IC50,A549,1070 nM
same,IC50,HMEC,2750 nM
COc1cc([C@@H]2c3cc4c(cc3[C@H](O)[C@H]3COC(=O)[C@H]23)OCO4)cc(OC)c1OC [PODOFILOX],IC50,PC-3M [1],235 nM
same,Activity,PC-3M [2],3.78%
same,Activity,PC-3M [3],9.11%
same,viability at 0.001 µM,PC-3M [5],94.4%
same,IC50,HepG2,> 200 µM
same,Activity,PC-3M [7],3.31%
same,Activity,PC-3M [10],3.17%
same,Activity,PC-3M [11],1.71%
same,Activity,PC-3M [12],0.083%
same,viability at 0.01 µM,PC-3M [14],75.7%
same,IC50,MCF7,> 200 µM
same,IC50,A549,5.37 nM
same,Activity,PC-3M [26],inactive
same,Activity,PC-3M [18],0.17%
same,Activity,PC-3M [20],20.9%
same,Activity,PC-3M [21],0.11%
same,IC50,HMEC,1340 nM
same,viability at 0.005 µM,PC-3M [24],87.6%
COc1cc([C@@H]2c3cc4c(cc3[C@H](OC(=O)[C@H](CC(C)C)NC(=O)OC(C)(C)C)[C@H]3COC(=O)[C@H]23)OCO4)cc(OC)c1OC,IC50,PC-3M [1],8.98 nM
same,IC50,HepG2,60.3 µM
same,IC50,MCF7,140 µM
same,IC50,A549,6440 nM
same,IC50,HMEC,2360 nM
COc1cc([C@@H]2c3cc4c(cc3[C@H](OC(=O)CN(C)C(=O)OC(C)(C)C)[C@H]3COC(=O)[C@H]23)OCO4)cc(OC)c1OC,IC50,PC-3M [1],13.2 nM
same,IC50,A549,43 nM
same,IC50,HMEC,27800 nM
